Source: paper PMC10762068, “Selective blockade of Cav1.2 (α1C) versus Cav1.3 (α1D) L-type calcium channels by the black mamba toxin calciseptine” (Nature Communications, 2024)
“Also recorded” adds a separate entry of the source. Where two headings read alike, the source gives them in different places. Positions of bridges follow the written chain, without caps; N, C: chain ends. No end group written: not given here.

Tests used:
[1] = test system: Cav1.2 (ICav1.2) in isolated adult mouse ventricular myocytes; format: cell-based
[2] = test system: Cav3.1 T-type; assay: Ca2+ current in HEK-293T cells expressing Cav3.1; format: cell-based; conditions: Cas 300 nM (n=13/N=3) and 1 µM (n=10/N=3); holding -80 mV, step -30 mV
Description: (§1) HEK-293T (RRID:CVCL_2737) were obtained from the European Collection of Authenticated Cell Cultures (ECACC 96121229). The identity of HEK-293T has been confirmed by STR profiling and the cells have been eradicated from mycoplasma at ECACC. We routinely tested the cells for the absence of the mycoplasma contamination. Cells were cultivated at 37 °C in DMEM supplemented with GlutaMax, 10% fetal bovine serum and 1% penicillin/streptomycin (Invitrogen, Fisher Scientific, France). […]
(§2) Macroscopic currents in HEK-293T cells were recorded at room temperature using an Axopatch 200B or Multiclamp 700B patchclamp amplifier (Molecular Devices, Sunnyvale CA). […]
(§3) In all experiments of cellular electrophysiology, we employed synthetized analog of Cas, commercially available at Latoxan (ID: L8109). […] Its measured molecular mass (7036.26 Da average) was in accordance with the mass calculated from sequence data (7036.22 Da). […]
(§4) n=10/N=3) channels. Peak current density wa s recorded starting f rom a holding potential of -80mV using an activating voltage step at -30mV for Cav3.1, f ro m a holding potential of -90mV using an activating voltage step at +20mV for Cav2.2 and f rom a holding potential of -80mV using an activating voltage step at 0mV for Cav2.1. Exam ples of recorded traces are reported. […]

[3] = test system: Cav2.2 N-type; assay: Ca2+ current in HEK-293T cells expressing Cav2.2; format: cell-based; conditions: Cas 300 nM (n=11/N=3) and 1 µM (n=9/N=3); holding -90 mV, step +20 mV
Description: as §1, §2, §3, §4

[4] = test system: DHP-sensitive Ca2+ channel in smooth muscle cells of the guinea-pig portal vein; conditions: cell-attached, 90 mM Ba2+ in the pipette; ref Teramoto et al, Pflugers Arch 1996; cited from earlier work
Text: This po int deserves further specific investigations and addit ional structural studies are required to elucidate the interaction and binding properties between Cas and Cav1.2 channel.

[5] = test system: DHP binding site, brain synaptosomes; conditions: at a rather high concentration; cited from earlier work
Text: DHPs are prototypical organic blockers of L-type calcium channels widely used in therapeutical applications.

## RICYIHKASLPRATKTCVENTCYKMFIRTQREYISERGCGCPTAMWPYQTECCKGDRCNK (disulfide 3-22, 17-39, 41-52, 53-58 (inferred)) [Cas, calciseptine]
[1]; Cas 100 nM alone or + Nife 3 µM, +10 mV, Ctrl -9.81±1.32, n=9
  L-type Ca2+ current density: -6.14±1.02 pA/pF
[1]; Cas 100 nM alone or + Nife 3 µM, +20 mV, Ctrl -8.04±1.33, n=9
  L-type Ca2+ current density: -5.17±0.93 pA/pF
[1]; Cas 100 nM alone or + Nife 3 µM, +40 mV, Ctrl -3.68±0.68, n=9
  L-type Ca2+ current density: -2.24±0.46 pA/pF
[1]; Cas 100 nM alone or + Nife 3 µM, -10 mV, Ctrl -5.27±0.86, n=9
  L-type Ca2+ current density: -3.45±0.54 pA/pF
[1]; Cas 100 nM alone or + Nife 3 µM, -20 mV, Ctrl -1.26±0.27, n=9
  L-type Ca2+ current density: -1.21±0.20 pA/pF
[1]; Cas 100 nM, 300 nM, 1 µM, voltages −25 mV to +40 mV, holding −55 mV
  reduction of ICav1.2: dose-dependently reduced
[1]; Cas 300 nM alone or + Nife 3 µM, 0 mV, Ctrl -10.51±1.51, n=7
  L-type Ca2+ current density: -3.07±0.59 pA/pF
[1]; Cas 300 nM alone or + Nife 3 µM, +10 mV, Ctrl -10.15±1.38, n=7
  L-type Ca2+ current density: -3.66±0.55 pA/pF
[1]; Cas 300 nM alone or + Nife 3 µM, +20 mV, Ctrl -8.09±1.11, n=7
  L-type Ca2+ current density: -3.32±0.45 pA/pF
[1]; Cas 300 nM alone or + Nife 3 µM, +40 mV, Ctrl -3.36±0.49, n=7
  L-type Ca2+ current density: -1.58±0.23 pA/pF
[1]; Cas 300 nM alone or + Nife 3 µM, -10 mV, Ctrl -6.58±1.29, n=7
  L-type Ca2+ current density: -1.63±0.37 pA/pF
[1]; Cas 300 nM alone or + Nife 3 µM, -20 mV, Ctrl -2.02±0.86, n=7
  L-type Ca2+ current density: -0.52±0.07 pA/pF
[1]; Cas 1 µM alone or + Nife 3 µM, 0 mV, Ctrl -9.85±1.04, n=6
  L-type Ca2+ current density: -2.28±0.33 pA/pF
[1]; Cas 1 µM alone or + Nife 3 µM, +10 mV, Ctrl -8.83±1,09, n=6
  L-type Ca2+ current density: -3.38±0.15 pA/pF
[1]; Cas 1 µM alone or + Nife 3 µM, +20 mV, Ctrl -6.41±0.90, n=6
  L-type Ca2+ current density: -3.38±0.12 pA/pF
[1]; Cas 1 µM alone or + Nife 3 µM, +40 mV, Ctrl -2.75±0.60, n=6
  L-type Ca2+ current density: -1.35±0.11 pA/pF
[1]; Cas 1 µM alone or + Nife 3 µM, -10 mV, Ctrl -7.71±0.98, n=6
  L-type Ca2+ current density: -0.87±0.23 pA/pF
[1]; Cas 1 µM alone or + Nife 3 µM, -20 mV, Ctrl -3.53±0.98, n=6
  L-type Ca2+ current density: -0.34±0.07 pA/pF
[2]
  effect on Cav3.1 current: failed to detect inhibitory effect; also recorded: had no effect
[3]
  effect on Cav2.2 current: failed to detect inhibitory effect; also recorded: had no effect
[4]
  block of 25-pS and 12-pS channel conductances: Both conductances were blocked
[5]
  inhibition of DHP binding: could inhibit binding of DHPs
